This is an account of results in patent US8943743B2, “Device for attracting and controlling the coffee berry borer, Hypothenemus hampei (Coleoptera: Scolytidae)” (Plato Industries Ltd, priority 2008, dated 2015).

Assay [1] relates to coffee berry borer (CBB), Hypothenemus hampei. Nature of the assay: Second field study 2008 near Naranjo, Costa Rica: damaged berries 70 days after treatment. The class given is in vivo. Particulars: Costa Rica 2008, 2500 m^2 blocks, 20 TMBs per hectare, 70 days after treatments were initiated. As to the method:
A second study was conducted in 2008 near Naranjo, Costa Rica. In this study, blocks treated with either blue and red TMBs had fewer damaged berries 70 days after treatments were initiated than did the untreated block or the block treated with endosulfan. Each block was 2500 m^2 in size and was treated with 20 TMBs per hectare.

Assay [2] has the same test system. Nature of the assay: Third field study 2008 near Alajuela, Costa Rica: damaged berries 70 days after treatment. The class given is in vivo. Particulars: Costa Rica 2008, 2500 m^2 blocks, 20 TMBs per hectare, 70 days after treatments were initiated. As to the method:
A third study was conducted in 2008 near Alajuela, Costa Rica. In this study, 2500 m^2 blocks treated with either blue and red TMBs at a rate of 20 TMBs per hectare had fewer damaged berries 70 days after treatments were initiated than did the untreated block, the block treated with endosulfan, or the block treated with red plastic traps.

Turning to `O=S1OCC2C(CO1)C1(Cl)C(Cl)=C(Cl)C2(Cl)C1(Cl)Cl` (centres unmarked) [endosulfan], the results for the “Mean % infested berries” value in assay [1] and in assay [2] were 1.15% and 5.9%, respectively.
